Experimental findings from ChEMBL document CHEMBL1201862, “PubChem BioAssay data set” (2004) are described below.

Structures are written as SMILES.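 Protocol summary: plate cells (96-well), add compound at 5 concentrations, incubate 48 h, interpolate endpoints linearly. At the GI50, growth is halved.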 Active and inactive are the calls of the source. No stated cut-off is given here; in the data, active = GI50 up to about 1.1 µM and inactive = higher.

Common to all, as to experiment: inhibition of tumour cell growth, NCI panel, 48 h
Assay [1] concerns A498.
The test system of assay [2] is COLO 205.
Assay [3] relates to DU-145.
The test system of assay [4] is EKVX.
Assay [5] relates to HCT-15.
The subject of assay [6] is LOX IMVI.
For assay [7], the system named is MCF7.
The test system of assay [8] is MDA-MB-231.
The subject of assay [9] is MDA-MB-435.
Assay [10] concerns NCI-H226.
For assay [11], the system named is NCI-H23.
Assay [12] concerns NCI-H522.
Assay [13] deals with NCI/ADR-RES.
The test system of assay [14] is OVCAR-4.
Assay [15] relates to PC-3.
Assay [16] concerns SK-MEL-2.
The test system of assay [17] is SN12C.
In assay [18] the test system is SR.
Assay [19] relates to SW-620.

Turning to `COc1ccc(C(=O)/C=C/c2ccc(O)c(O)c2)c(OC)c1`, the GI50 in assay [1] is 4.5 µM (inactive); in assay [2], 15.1 µM (inactive); in [3], 3.16 µM (inactive); in assay [4], 11.8 µM (inactive); in [5] it was 0.292 µM; in assay [6], 3.58 µM (inactive). Besides, the GI50 in [7] is 0.301 µM (active); in assay [8] it was 2.71 µM (inactive); in assay [9], 0.47 µM (active); in assay [10], 6.64 µM (inactive); in assay [11], 2.31 µM (inactive); in assay [12], 0.245 µM (active). Moreover, the GI50 is 2.75 µM (inactive) in [13]; 12.4 µM (inactive) in assay [14]; 4.8 µM (inactive) in assay [15]; 2.77 µM (inactive) in [16]; 1.22 µM (inactive) in assay [17]; 0.337 µM (active) in [18]. In addition, the GI50 in assay [19] was 1.22 µM (inactive).
With `CCCCNN`, the GI50 is > 100 µM (inactive) in assay [1]; > 100 µM (inactive) in [2]; > 100 µM (inactive) in assay [3]; > 100 µM (inactive) in [4]; above 100 µM in [5]; > 100 µM (inactive) in assay [6]. In addition, the GI50 was > 100 µM (inactive) in assay [7]; > 100 µM (inactive) in [8]; > 100 µM (inactive) in [9]; > 100 µM (inactive) in [10]; > 100 µM (inactive) in [11]; 65.3 µM (inactive) in assay [12]. The GI50 in assay [13], in [14], in assay [15], in assay [16], in assay [17] and in [18] was > 100 µM (inactive) throughout. The GI50 in assay [19] is > 100 µM (inactive).
With `Clc1ccccc1-c1nn2c(CCCCCCCCc3nnc4sc(-c5ccccc5Cl)nn34)nnc2s1`, the GI50 was > 100 µM (inactive) in [1]; > 100 µM (inactive) in assay [2]; > 100 µM (inactive) in assay [3]; > 100 µM (inactive) in [4]; above 100 µM in assay [5]; 63.1 µM (inactive) in [6]. For the same molecule, the GI50 is 52.2 µM (inactive) in assay [7]; 87.7 µM (inactive) in assay [8]; > 100 µM (inactive) in assay [9]; > 100 µM (inactive) in assay [10]; > 100 µM (inactive) in assay [11]; 77.3 µM (inactive) in assay [12]. The GI50 in [13], in assay [14], in [15], in [16], in assay [17] and in assay [18] was > 100 µM (inactive) in each case. In assay [19], the GI50 was > 100 µM (inactive).
Regarding `COc1cc(/C=C/C(=O)C2(C(=O)/C=C/c3cc(OC)c(OC)c(OC)c3)CCCCC2)cc(OC)c1OC`, the GI50 in assay [1] is > 100 µM (inactive); in [2] it was 78.9 µM (inactive); in [3], 32.7 µM (inactive); in assay [4] it was 27.5 µM (inactive); in [5], 33.3 µM; in assay [6] it was 38.7 µM (inactive). For the same molecule, the GI50 in assay [7] was 27.6 µM (inactive); in assay [8], 42.9 µM (inactive); in assay [9], 21.5 µM (inactive); in assay [10], 32.7 µM (inactive); in [11], 53.3 µM (inactive); in [12] it was 30.1 µM (inactive). Besides, the GI50 in [13] was 32.1 µM (inactive); in assay [14], 46.6 µM (inactive); in [15] it was 27.2 µM (inactive); in assay [16], > 100 µM (inactive); in assay [17], 35.2 µM (inactive); in assay [18], 19.4 µM (inactive). Besides, the GI50 in assay [19] was 38.3 µM (inactive).
As for `CC(C)(CO)CNc1cc(Cl)nc(N)n1`, the GI50 in assay [1] is > 100 µM (inactive); in assay [2], > 100 µM (inactive); in [3] it was > 100 µM (inactive); in assay [4], > 100 µM (inactive); in [5], above 100 µM; in assay [6], > 100 µM (inactive). The GI50 in assay [7], in [8], in assay [9], in [10], in assay [11] and in [12] was > 100 µM (inactive) throughout. Also, the GI50 in [13], in [14], in assay [15], in assay [16], in assay [17] and in assay [18] was > 100 µM (inactive) each time. Also, the GI50 in assay [19] was > 100 µM (inactive).
Take `Cc1ccc(O)c(C(c2ccc(C(c3cc(C)ccc3O)c3cc(C)ccc3O)cc2)c2cc(C)ccc2O)c1`: the GI50 in assay [1] is 1.56 µM (inactive); in assay [2] it was 1.33 µM (inactive); in assay [3] it was 1.74 µM (inactive); in [4] it was 1.87 µM (inactive); in [5] it was 1.8 µM; in assay [6], 1.69 µM (inactive). Besides, the GI50 in [7] is 2.31 µM (inactive); in assay [8], 1.25 µM (inactive); in assay [9], 1.7 µM (inactive); in [10], 1.86 µM (inactive); in assay [11], 1.79 µM (inactive); in [12], 2.08 µM (inactive). For the same molecule, the GI50 in assay [13] is 1.88 µM (inactive); in [14], 1.79 µM (inactive); in assay [15] it was 1.59 µM (inactive); in assay [16], 1.86 µM (inactive); in [17], 1.65 µM (inactive); in assay [18], 2.62 µM (inactive). Also, in [19], the GI50 was 1.82 µM (inactive).
As to `N=C(N)NS(=O)(=O)c1ccc(NC(=O)c2c3ccccc3nc3ccccc23)cc1`, the GI50 in [1] is > 100 µM (inactive); in assay [2], > 100 µM (inactive); in assay [3] it was > 100 µM (inactive); in assay [4], > 100 µM (inactive); in assay [5], above 100 µM; in [6], > 100 µM (inactive). The GI50 in assay [7] is > 100 µM (inactive); in assay [8], > 100 µM (inactive); in [9], > 100 µM (inactive); in assay [10] it was 43.1 µM (inactive); in assay [11], > 100 µM (inactive); in assay [12], > 100 µM (inactive). Besides, the GI50 in assay [13], in [14], in assay [15], in assay [16], in assay [17] and in assay [18] was > 100 µM (inactive) throughout. For the same molecule, the GI50 in assay [19] is > 100 µM (inactive).
Take `CCOC(=O)COc1ccc2c(C)cc(=O)oc2c1`: the GI50 in [1] is > 100 µM (inactive); in assay [2], > 100 µM (inactive); in [3] it was > 100 µM (inactive); in assay [4], > 100 µM (inactive); in [5] it was above 100 µM; in assay [6] it was > 100 µM (inactive). The GI50 in assay [7], in [8], in assay [9], in assay [10], in assay [11] and in assay [12] was > 100 µM (inactive) each time. In addition, the GI50 in assay [13], in [14], in assay [15], in assay [16], in [17] and in assay [18] was > 100 µM (inactive) in each case. For the same molecule, the GI50 in assay [19] is > 100 µM (inactive).
Turning to `O=C1C2CC(Cl)C(SSC3CC4C(=O)N(SC(Cl)(Cl)C(Cl)Cl)C(=O)C4CC3Cl)CC2C(=O)N1SC(Cl)(Cl)C(Cl)Cl` (centres undefined), the GI50 in assay [1] was 2.81 µM (inactive); in [2], 1.78 µM (inactive); in assay [3], 2.6 µM (inactive); in [4] it was 3.01 µM (inactive); in assay [5], 1.29 µM; in assay [6] it was 1.34 µM (inactive). Moreover, the GI50 in assay [7] was 1.67 µM (inactive); in assay [8] it was 1.54 µM (inactive); in assay [9], 1.65 µM (inactive); in [10] it was 3.67 µM (inactive); in [11], 1.66 µM (inactive); in assay [12], 0.379 µM (active). The GI50 was 2.06 µM (inactive) in assay [13]; 2.13 µM (inactive) in [14]; 1.29 µM (inactive) in assay [15]; 1.53 µM (inactive) in assay [16]; 1.91 µM (inactive) in [17]; 0.229 µM (active) in assay [18]. For the same molecule, the GI50 in [19] is 1.27 µM (inactive).
Regarding `CC(C)OC(=O)c1ccc(CCC2=CC(=O)C(Br)=CC2=O)cc1`, the GI50 in [1] was 35.9 µM (inactive); in assay [2] it was 11.9 µM (inactive); in assay [3] it was 23.7 µM (inactive); in assay [4], 16.3 µM (inactive); in [5], 15.4 µM; in assay [6], 15.9 µM (inactive). Also, the GI50 in [7] was 17.7 µM (inactive); in [8] it was 17.2 µM (inactive); in assay [9], 16.9 µM (inactive); in assay [10] it was 19.8 µM (inactive); in assay [11] it was 13.2 µM (inactive); in assay [12] it was 5.56 µM (inactive). Further, the GI50 was 14.5 µM (inactive) in assay [13]; 5.75 µM (inactive) in assay [14]; 17 µM (inactive) in assay [15]; 15.6 µM (inactive) in assay [16]; 16.9 µM (inactive) in assay [17]; 3.82 µM (inactive) in [18]. In addition, in assay [19], the GI50 is 15.5 µM (inactive).
For `Cc1cnc2[nH]c(-c3cccc(F)c3)cc(=O)c2c1`, the GI50 in assay [1] is 0.0579 µM (active); in assay [2], 0.0214 µM (active); in assay [3] it was 0.0459 µM (active); in assay [4] it was 0.2 µM (active); in assay [5], 0.0267 µM; in [6] it was 0.0668 µM (active). The GI50 in assay [7] was 0.115 µM (active); in assay [8], 0.0505 µM (active); in [9], < 0.01 µM (active); in assay [10], 0.0432 µM (active); in assay [11], 0.151 µM (active); in assay [12], 0.0255 µM (active). Also, the GI50 in assay [13] is 0.0146 µM (active); in [14], 1.31 µM (inactive); in assay [15], 0.0239 µM (active); in [16], 0.0802 µM (active); in assay [17] it was 0.0687 µM (active); in assay [18], 0.0229 µM (active). Further, the GI50 in assay [19] was 0.0252 µM (active).
